Experimental data from patent publication US20080306166A1, “Compositions and Methods For Treatment of Disorders of Protein Aggregation” (priority 2004, published 2008).
Entries after “also recorded” stand apart in the source; their conditions may differ.

Tests used:
[1] = target: T1, Aβ42 (Homo sapiens, UniProt P05067); assay: Plasma Aβ42 levels; assay type: in vivo, mouse; conditions: TgCRND8 mice, 28 days of therapy at five months of age
T1 construct: analyzed for Aβ40 and Aβ42 using commercially available kits; from tissue; host or cells: TgCRND8 transgenic mice: hemi-brain (A3) and plasma (A5)
Protocol: Mice. […] This initial dosage was chosen based upon the dosage of myo-cyclohexanehexyl (6-18 grams/day/adult or 86-257 mg/Kg/day) that is typically administered to human patients for various psychiatric disorders. […] A cohort of animals (n=10 mice per treatment arm) entered the study at five months of age, and outcomes were then analyzed after one month of treatment. The body weight, coat characteristics and in cage behaviour were monitored. Mannitol was used as a negative control for potential alterations in caloric intake. All experiments were performed according to the Canadian Council on Animal Care guidelines. Behavioural tests: Morris Water Maze testing was performed as previously described. […] Duration of walking, pausing and grooming were analyzed as indices of spontaneous locomotor activity. […] Latency to fall was recorded in four daily trials, conducted at 30 min intervals. […] Amyloid plaque burden was assessed with Leco IA-3001 image analysis software interfaced with Leica microscope and Hitachi KP-M1U CCD video camera. […] Vascular amyloid burden was defined as amyloid originating from or surrounding blood vessels and was analysed similarly. […] After neutralization, the samples were diluted and analyzed for Aβ40 and Aβ42 using commercially available kits (BIOSOURCE International). Each hemisphere was analyzed intriplicate and the mean values ±SEM reported. […] Gliosis Quantitation. […]

[2] = system: TgCRND8 mice; assay: Morris Water Maze spatial reference memory test in TgCRND8 mice; assay type: in vivo, mouse; conditions: six month old TgCRND8 mice, 28 days treatment from 5 months
Protocol: Mice. […] This initial dosage was chosen based upon the dosage of myo-cyclohexanehexyl (6-18 grams/day/adult or 86-257 mg/Kg/day) that is typically administered to human patients for various psychiatric disorders. […] A cohort of animals (n=10 mice per treatment arm) entered the study at five months of age, and outcomes were then analyzed after one month of treatment. The body weight, coat characteristics and in cage behaviour were monitored. Mannitol was used as a negative control for potential alterations in caloric intake. All experiments were performed according to the Canadian Council on Animal Care guidelines. Behavioural tests: Morris Water Maze testing was performed as previously described. After non-spatial pre-training, mice underwent place discrimination training for 5 days with 4-trials per day, followed by a cued visible platform to rule out general motivational, learning deficits and motor problems, and a probe trial to evaluate memory. […] Open field test for motor activity was preformed as described previously. Duration of walking, pausing and grooming were analyzed as indices of spontaneous locomotor activity. Sensorimotor function was examined with an Economex™ accelerating rotarod (Columbus Instruments, Columbus, Ohio), as described elsewhere. The rod was set to accelerate at a rate of 0.2 r.p.m./s, from an initial, constant speed of 5 r.p.m. Latency to fall was recorded in four daily trials, conducted at 30 min intervals. All mice were trained for seven days before testing. The test day performance score for each animal was obtained by summing its latency to fall over the four trials. Cerebral amyloid burden. Brains were removed and one hemisphere was fixed in 4% paraformaldehyde and embedded in paraffin wax in the mid sagittal plane. To generate sets of systematic uniform random sections, 5 μm serial sections were collected across the entire hemisphere. Sets of sections at 50 μm intervals were used for analyses (10-14 sections/set). Plaques were identified after antigen retrieval with formic acid, and incubation with primary anti-AD antibody (Dako M-0872), followed by secondary antibody (Dako StreptABCcomplex/horseradish kit). End products were visualized with DAB and were counter-stained with luxol fast blue. Amyloid plaque burden was assessed with Leco IA-3001 image analysis software interfaced with Leica microscope and Hitachi KP-M1U CCD video camera. Openlab imaging software (Improvision, Lexington, Mass.) was then used to convert micrographs to binary images for plaque number and plaque area determinations. Vascular amyloid burden was defined as amyloid originating from or surrounding blood vessels and was analysed similarly. Plasma and Cerebral Aβ Content. Hemi-brain samples were homogenized in a buffered sucrose solution, followed by either 0.4% diethylamine/100 mM NaCl for soluble Aβ levels or cold formic acid for the isolation of total Aβ. After neutralization, the samples were diluted and analyzed for Aβ40 and Aβ42 using commercially available kits (BIOSOURCE International). Each hemisphere was analyzed intriplicate and the mean values ±SEM reported. Western blot analyses were performed on all fractions using urea gels for Aβ species analyses. Aβ was detected using 6E10 (BIOSOURCE International) and Enhanced Chemiluminenscence (Amersham). Gliosis Quantitation. Five randomly selected, evenly spaced, sagittal sections were collected from paraformaldehyde-fixed and frozen hemispheres of treated and control mice. […]

[3] = system: TgCRND8 mice; assay: Cerebral amyloid plaque burden (anti-Aβ immunostaining, image analysis); assay type: in vivo, mouse
Protocol: Mice. […] This initial dosage was chosen based upon the dosage of myo-cyclohexanehexyl (6-18 grams/day/adult or 86-257 mg/Kg/day) that is typically administered to human patients for various psychiatric disorders. […] A cohort of animals (n=10 mice per treatment arm) entered the study at five months of age, and outcomes were then analyzed after one month of treatment. The body weight, coat characteristics and in cage behaviour were monitored. Mannitol was used as a negative control for potential alterations in caloric intake. All experiments were performed according to the Canadian Council on Animal Care guidelines. Behavioural tests: Morris Water Maze testing was performed as previously described. After non-spatial pre-training, mice underwent place discrimination training for 5 days with 4-trials per day, followed by a cued visible platform to rule out general motivational, learning deficits and motor problems, and a probe trial to evaluate memory. […] Open field test for motor activity was preformed as described previously. Duration of walking, pausing and grooming were analyzed as indices of spontaneous locomotor activity. Sensorimotor function was examined with an Economex™ accelerating rotarod (Columbus Instruments, Columbus, Ohio), as described elsewhere. The rod was set to accelerate at a rate of 0.2 r.p.m./s, from an initial, constant speed of 5 r.p.m. Latency to fall was recorded in four daily trials, conducted at 30 min intervals. All mice were trained for seven days before testing. The test day performance score for each animal was obtained by summing its latency to fall over the four trials. Cerebral amyloid burden. Brains were removed and one hemisphere was fixed in 4% paraformaldehyde and embedded in paraffin wax in the mid sagittal plane. To generate sets of systematic uniform random sections, 5 μm serial sections were collected across the entire hemisphere. Sets of sections at 50 μm intervals were used for analyses (10-14 sections/set). Plaques were identified after antigen retrieval with formic acid, and incubation with primary anti-AD antibody (Dako M-0872), followed by secondary antibody (Dako StreptABCcomplex/horseradish kit). End products were visualized with DAB and were counter-stained with luxol fast blue. Amyloid plaque burden was assessed with Leco IA-3001 image analysis software interfaced with Leica microscope and Hitachi KP-M1U CCD video camera. Openlab imaging software (Improvision, Lexington, Mass.) was then used to convert micrographs to binary images for plaque number and plaque area determinations. Vascular amyloid burden was defined as amyloid originating from or surrounding blood vessels and was analysed similarly. Plasma and Cerebral Aβ Content. Hemi-brain samples were homogenized in a buffered sucrose solution, followed by either 0.4% diethylamine/100 mM NaCl for soluble Aβ levels or cold formic acid for the isolation of total Aβ. After neutralization, the samples were diluted and analyzed for Aβ40 and Aβ42 using commercially available kits (BIOSOURCE International). Each hemisphere was analyzed intriplicate and the mean values ±SEM reported. Western blot analyses were performed on all fractions using urea gels for Aβ species analyses. Aβ was detected using 6E10 (BIOSOURCE International) and Enhanced Chemiluminenscence (Amersham). Gliosis Quantitation. Five randomly selected, evenly spaced, sagittal sections were collected from paraformaldehyde-fixed and frozen hemispheres of treated and control mice. Sections were immunolabelled for astrocytes with anti-rat GFAP IgG2a, (Dako; diluted 1:50) and for microglia with anti-rat CD68 IgG2b (Dako; 1:50).

[4] = Pilot in vivo studies with myo-cyclohexanehexyl; conditions: data not shown
Excerpt: The TgCRND8 mice and non-transgenic littermates were assigned to sex- and age-matched cohorts that were then used to test the effectiveness of the cyclohexanehexyl stereoisomers as a therapeutic (with treatment delayed until five months of age and continued for one month until six months of age). […] The endpoints were cognitive function, brain Aβ levels, and neuropathology. […] Over the course of these experiments, observers were unaware of genotype or treatment group.

[5] = 6-18 grams/day/adult or 86-257 mg/Kg/day; cited from earlier work
[6] = target: T2, Aβ (Homo sapiens, UniProt P05067); conditions: cited from earlier work
T2 construct: Inositol stereoisomers stabilize an oligomeric aggregate of Alzheimer amyloid beta peptide

[7] = system: Aβ oligomers; conditions: added pre-cond, positive control, previously shown; cited from earlier work
[8] = TgCRND8 mice, oral, 28 days from 5 months of age, 6 months of age, listed as Epi-cyclohexanehexol

T2 sequence (P05067 672-713 limits assumed): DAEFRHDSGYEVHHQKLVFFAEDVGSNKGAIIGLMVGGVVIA
T1 sequence (P05067 672-713): as the sequence (P05067 672-713 limits assumed) above

SMILES: OC1C(O)C(O)C(O)C(O)C1O (stereo not drawn) [epi-cyclohexanehexyl, 1,2,3,4,5/6-(epi-) cyclohexanehexyl, reference compound]
- Plasma Aβ42 levels [1]: 1079 ± 79 pg/mL
- spatial learning performance compared to non-Tg littermates [2]: significantly poorer than the performance of their non-Tg littermates; also recorded: remained impaired with respect to non-Tg littermates
- spatial learning performance compared to untreated TgCRND8 littermates [2]: not significantly different from that of untreated TgCRND8 littermates
- impact on brain Aβ40 or Aβ42 levels, percent area of the brain covered with plaques, or plaque number ([3]; TgCRND8 mice with pre-existing disease, 28 days): no significant impact
- Mean Plaque Size [3, 8]: 346 ± 6 μm^2
- Total Plaque Area [3, 8]: 459706 ± 49966 μm^2
- Total Plaque Count [3, 8]: 1342 ± 114

SMILES: O[C@H]1[C@H](O)[C@@H](O)[C@H](O)[C@@H](O)[C@H]1O [myo-cyclohexanehexyl, 1,2,3,5/4,6-(myo-) cyclohexanehexyl]
- benefit in pilot in vivo studies [4]: no significant benefit
- toxicity in humans or animals [5]: no toxicity
- effectiveness in prior in vitro studies [6]: only weakly effective

SMILES: Oc1cccc(Nc2ccc(Nc3cccc(O)c3)nn2)c1 [RS0406]
- production of Aβ oligomers [7]: reduces the production of oligomers
